Assay results: ChEMBL document CHEMBL5154648, “Antitumor activity of novel POLA1-HDAC11 dual inhibitors” (Eur J Med Chem, 2022)
Active and inactive are the calls of the source. The calls are words filed in the database; no cut-off is given here.

Experiments:
[1] = tested on: NCI-H460; assay: Down-regulation of POLA1 protein expression in human NCI-H460 cells at 0.25 uM measured by Western blot analysis; type: functional, cell-based
[2] = tested on: MM487; assay: Induction of DNA damage in human MM487 cells at 0.1 to 0.4 uM assessed as increase in p-H2AX levels and measured by Western blot analysis; type: functional, cell-based; conditions: dose 0.1-0.4 µM
[3] = Induction of cell cycle arrest in human H460-R9A cells assessed as accumulation of cells at sub-G1 phase at 2.8 uM after 72 hrs by flow cytometry (reference value: 1.5%); type: functional
[4] = tested on: A2780; assay: Induction of cell cycle arrest in human A2780 cells assessed as accumulation of cells at S phase at 0.6 uM after 72 hrs by flow cytometry (reference value: 36.3%); type: functional
[5] = target: T1, Histone deacetylase 11 (Homo sapiens) (UniProt Q96DB2); assay: Inhibition of HDAC11 in human MM487 cells at 0.1 to 0.4 uM assessed as induction of p53 acetylation and measured by Western blot analysis; type: cell-based; conditions: dose 0.1-0.4 µM
T1 sequence (whole entry): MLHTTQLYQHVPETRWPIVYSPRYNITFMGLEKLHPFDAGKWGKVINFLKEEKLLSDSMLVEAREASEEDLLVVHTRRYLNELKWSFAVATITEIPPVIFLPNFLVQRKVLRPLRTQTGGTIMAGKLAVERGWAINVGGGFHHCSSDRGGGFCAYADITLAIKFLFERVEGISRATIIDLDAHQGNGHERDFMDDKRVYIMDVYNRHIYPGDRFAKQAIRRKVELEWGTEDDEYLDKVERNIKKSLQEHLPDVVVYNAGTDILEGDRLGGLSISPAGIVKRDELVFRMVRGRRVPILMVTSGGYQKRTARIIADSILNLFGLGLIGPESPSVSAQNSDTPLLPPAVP

[6] = tested on: A2780; assay: Induction of cell cycle arrest in human A2780 cells assessed as accumulation of cells at G2/M phase at 0.6 uM after 72 hrs by flow cytometry (reference value: 15%); type: functional
[7] = tested on: NCI-H460; assay: Antitumor activity against human NCI-H460 cells xenografted in mouse assessed as tumor growth inhibition at 50 mg/kg, po qd administered 5 times a week for 3 to 4 weeks; type: functional; conditions: time 3-4 weeks, read-out: TGI
[8] = tested on: Mus musculus; assay: Inhibition of POLA1 in mouse B16 cells xenografted C57BL/6 mouse assessed as increase in IFN-alpha levels at 50 mg/kg, po administered twice a day for 5 days measured by ELISA assay; type: functional, organism-based; conditions: time 5.0 day
[9] = tested on: MM473; assay: Induction of DNA damage in human MM473 cells at 0.1 to 0.4 uM assessed as increase in p-H2AX levels and measured by Western blot analysis; type: functional, cell-based; conditions: dose 0.1-0.4 µM
[10] = tested on: A2780; assay: Induction of cell cycle arrest in human A2780 cells assessed as accumulation of cells at sub-G1 phase at 0.6 uM after 72 hrs by flow cytometry (reference value: 1.6%); type: functional
[11] = Toxicity in mouse xenografted with human H460-R9A cells assessed as body weight loss at 50 mg/kg, po qd administered 5 times a week for 3 to 4 weeks; type: organism-based; conditions: in vivo, time 3-4 weeks
[12] = Induction of cell cycle arrest in human H460-R9A cells assessed as accumulation of cells at G2/M phase at 2.8 uM after 72 hrs by flow cytometry (reference value: 15.4%); type: functional
[13] = target: T1, Histone deacetylase 11 (Homo sapiens); assay: Inhibition of HDAC11 in human MM487 cells at 0.1 to 0.4 uM assessed as increase in p21 level and measured by Western blot analysis; type: cell-based; conditions: dose 0.1-0.4 µM
[14] = tested on: A2780; assay: Induction of cell cycle arrest in human A2780 cells assessed as accumulation of cells at G0/1 phase at 0.6 uM after 72 hrs by flow cytometry (reference value: 48.7%); type: functional
[15] = Toxicity in mouse xenografted with human NCI-H460 cells assessed as body weight loss at 50 mg/kg, po qd administered 5 times a week for 3 to 4 weeks; type: organism-based; conditions: in vivo, time 3-4 weeks
[16] = tested on: NCI-H460; assay: Induction of cell cycle arrest in human NCI-H460 cells assessed as accumulation of cells at G0/1 phase at 0.12 uM after 72 hrs by flow cytometry (reference value: 46.8%); type: functional
[17] = Induction of cell cycle arrest in human H460-R9A cells assessed as accumulation of cells at S phase at 2.2 uM after 72 hrs by flow cytometry (reference value: 34.5%); type: functional
[18] = tested on: H460-R9A; assay: Antiproliferative activity against human H460-R9A cells at 0.75 to 12 uM after 72 hrs by MTT assay; type: functional, cell-based; conditions: dose 0.75-12 µM
[19] = tested on: H460-R9A; assay: Antiproliferative activity against human H460-R9A cells at 0.75 to 12 uM in combination with SIS17 after 72 hrs by MTT assay; type: functional, cell-based; conditions: dose 0.75-12 µM
[20] = Toxicity in mouse xenografted with human NCI-H460 cells assessed as body weight loss at 20 mg/kg, po qd administered 5 times a week for 3 to 4 weeks; type: organism-based; conditions: in vivo, time 3-4 weeks
[21] = tested on: NCI-H460; assay: Induction of cell cycle arrest in human NCI-H460 cells assessed as accumulation of cells at S phase at 0.12 uM after 72 hrs by flow cytometry (reference value: 32.1%); type: functional
[22] = Induction of cell cycle arrest in human H460-R9A cells assessed as accumulation of cells at G2/M phase at 2.2 uM after 72 hrs by flow cytometry (reference value: 15.4%); type: functional
[23] = tested on: MM473; assay: Induction of cell cycle arrest in human MM473-Luc cells assessed as accumulation of cells at G0/1 phase at 1.4 uM after 72 hrs by flow cytometry (reference value: 74.7%); type: functional
[24] = tested on: A2780; assay: Induction of cell cycle arrest in human A2780 cells assessed as accumulation of cells at G0/1 phase at 0.95 uM after 72 hrs by flow cytometry (reference value: 48.7%); type: functional
[25] = tested on: MM473; assay: Induction of cell cycle arrest in human MM473-Luc cells assessed as accumulation of cells at G2/M phase at 1.4 uM after 72 hrs by flow cytometry (reference value: 11.7%); type: functional
[26] = tested on: MM473; assay: Induction of cell cycle arrest in human MM473-Luc cells assessed as accumulation of cells at S phase at 1.4 uM after 72 hrs by flow cytometry (reference value: 13.7%); type: functional
[27] = tested on: NCI-H460; assay: Induction of cell cycle arrest in human NCI-H460 cells assessed as accumulation of cells at sub-G1 phase at 0.26 uM after 72 hrs by flow cytometry (reference value: 1.1%); type: functional
[28] = tested on: NCI-H460; assay: Induction of cell cycle arrest in human NCI-H460 cells assessed as accumulation of cells at S phase at 0.26 uM after 72 hrs by flow cytometry (reference value: 32.1%); type: functional
[29] = Antitumor activity against human MM487 cells xenografted in mouse assessed as tumor growth inhibition at 50 mg/kg, po bid administered 5 times a week for 3 weeks; type: functional; conditions: MM487, 504 h, read-out: TGI

O=C(O)C=Cc1ccc(-c2ccc(OCC(=O)NO)c(C34CC5CC(CC(C5)C3)C4)c2)cc1
Activity [1]: Active | Activity [2]: Active | Activity [3]: 37.8% | Activity [4]: 78.9% | inhibition [5]: Active | Activity [6]: 6.5% | inhibition in vivo at 50 mg/kg [7]: 61% | inhibition [8]: Active | Activity [9]: Active | Activity [10]: 33.3% | Activity [11]: 0% | Activity [12]: 12.9% | inhibition [13]: Active | Activity [14]: 14.6% | Activity [15]: 0%

O=C(O)C=Cc1ccc(-c2ccc(O)c(C34CC5CC(CC(C5)C3)C4)c2)cc1
Activity [16]: 13.8% | Activity [17]: 63.4% | Activity [18]: Active | Activity [19]: Active | Activity [20]: 0% | Activity [21]: 79.7% | Activity [22]: 13.8%

CC(Oc1ccc(-c2ccc(C=CC(=O)O)cc2)cc1C12CC3CC(CC(C3)C1)C2)C(=O)NO (centres undefined)
Activity [23]: 2.3% | Activity [24]: 10.8% | Activity [25]: 16.1% | Activity [26]: 81.6% | Activity [27]: 13.2% | Activity [28]: 81.4% | inhibition in vivo at 50 mg/kg [29]: 72%
